# Results: PubChem BioAssay (NCI)
#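 Test compounds were applied to cells in 96-well plates for 48 hours at 5 doses. TGI denotes the concentration required for complete inhibition of growth.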
# Assays:
# Experiment in all cases: NCI tumour cell line growth inhibition, 48 h
# COLO 205 colon = test system: COLO 205 colon
# ACHN renal = test system: ACHN renal
# SF-539 CNS = test system: SF-539 CNS
# M19-MEL melanoma = test system: M19-MEL melanoma
# CCRF-CEM leukemia = test system: CCRF-CEM leukemia
# NCI-H226 lung = test system: NCI-H226 lung
# A549 NSCLC = test system: A549 NSCLC
# HOP-18 NSCLC = test system: HOP-18 NSCLC
# M14 melanoma = test system: M14 melanoma
# OVCAR-3 ovarian = test system: OVCAR-3 ovarian
# HOP-92 NSCLC = test system: HOP-92 NSCLC
# DMS 273 small cell lung = test system: DMS 273 small cell lung
# KM20L2 colon = test system: KM20L2 colon
# UO-31 renal = test system: UO-31 renal
# HCT-116 colon = test system: HCT-116 colon
# SNB-19 CNS = test system: SNB-19 CNS
# CAKI-1 renal = test system: CAKI-1 renal
# HOP-62 NSCLC = test system: HOP-62 NSCLC
# TK-10 renal = test system: TK-10 renal
# UACC-62 melanoma = test system: UACC-62 melanoma
# 786-0 renal = test system: 786-0 renal
# U251 CNS = test system: U251 CNS
# MALME-3M melanoma = test system: MALME-3M melanoma
# SW-620 colon = test system: SW-620 colon
# SR leukemia = test system: SR leukemia
# RXF 393 renal = test system: RXF 393 renal
# IGROV1 ovarian = test system: IGROV1 ovarian
# UACC-257 melanoma = test system: UACC-257 melanoma
# SK-MEL-28 melanoma = test system: SK-MEL-28 melanoma
# HT29 colon = test system: HT29 colon
# SNB-75 CNS = test system: SNB-75 CNS
# K-562 leukemia = test system: K-562 leukemia
# SF-268 CNS = test system: SF-268 CNS
# HL-60(TB) leukemia = test system: HL-60(TB) leukemia
# MOLT-4 leukemia = test system: MOLT-4 leukemia
# NCI-H23 lung = test system: NCI-H23 lung
# HCC-2998 colon = test system: HCC-2998 colon
# NCI-H522 lung = test system: NCI-H522 lung
# SNB-78 CNS = test system: SNB-78 CNS
# LOX IMVI melanoma = test system: LOX IMVI melanoma
# RXF-631 renal = test system: RXF-631 renal
# OVCAR-5 ovarian = test system: OVCAR-5 ovarian
# SK-OV-3 ovarian = test system: SK-OV-3 ovarian
# SK-MEL-2 melanoma = test system: SK-MEL-2 melanoma
# HCT-15 colon = test system: HCT-15 colon
# EKVX NSCLC = test system: EKVX NSCLC
# OVCAR-8 ovarian = test system: OVCAR-8 ovarian
# SN12C renal = test system: SN12C renal
# A498 renal = test system: A498 renal
# LXFL 529 NSCLC = test system: LXFL 529 NSCLC
# XF 498 CNS = test system: XF 498 CNS
# SF-295 CNS = test system: SF-295 CNS
# RPMI-8226 leukemia = test system: RPMI-8226 leukemia
# KM12 colon = test system: KM12 colon
# NCI-H460 lung = test system: NCI-H460 lung
# SK-MEL-5 melanoma = test system: SK-MEL-5 melanoma
# P388/ADR leukemia = test system: P388/ADR leukemia
# P388 leukemia = test system: P388 leukemia
# SN12K1 renal = test system: SN12K1 renal
# DLD-1 colon = test system: DLD-1 colon
# DMS 114 small cell lung = test system: DMS 114 small cell lung
# OVCAR-4 ovarian = test system: OVCAR-4 ovarian
structure (smiles),measurement,setting,value
COc1ccc(NC(=O)CCc2cc(C(C)(C)C)n[nH]2)cc1,TGI,COLO 205 colon,> 100 µM
same,TGI,ACHN renal,> 100 µM
same,TGI,SF-539 CNS,> 100 µM
same,TGI,M19-MEL melanoma,> 100 µM
same,TGI,CCRF-CEM leukemia,> 100 µM
same,TGI,NCI-H226 lung,> 100 µM
same,TGI,A549 NSCLC,> 100 µM
same,TGI,HOP-18 NSCLC,> 100 µM
same,TGI,M14 melanoma,> 100 µM
same,TGI,OVCAR-3 ovarian,> 100 µM
same,TGI,HOP-92 NSCLC,> 100 µM
same,TGI,DMS 273 small cell lung,> 100 µM
same,TGI,KM20L2 colon,> 100 µM
same,TGI,UO-31 renal,> 100 µM
same,TGI,HCT-116 colon,> 100 µM
same,TGI,SNB-19 CNS,> 100 µM
same,TGI,CAKI-1 renal,> 100 µM
same,TGI,HOP-62 NSCLC,> 100 µM
same,TGI,TK-10 renal,> 100 µM
same,TGI,UACC-62 melanoma,> 100 µM
same,TGI,786-0 renal,> 100 µM
same,TGI,U251 CNS,> 100 µM
same,TGI,MALME-3M melanoma,> 100 µM
same,TGI,SW-620 colon,> 100 µM
same,TGI,SR leukemia,> 100 µM
same,TGI,RXF 393 renal,> 100 µM
same,TGI,IGROV1 ovarian,> 100 µM
same,TGI,UACC-257 melanoma,> 100 µM
same,TGI,SK-MEL-28 melanoma,> 100 µM
same,TGI,HT29 colon,> 100 µM
same,TGI,SNB-75 CNS,> 100 µM
same,TGI,K-562 leukemia,> 100 µM
same,TGI,SF-268 CNS,> 100 µM
same,TGI,HL-60(TB) leukemia,> 100 µM
same,TGI,MOLT-4 leukemia,> 100 µM
same,TGI,NCI-H23 lung,> 100 µM
same,TGI,HCC-2998 colon,> 100 µM
same,TGI,NCI-H522 lung,> 100 µM
same,TGI,SNB-78 CNS,> 100 µM
same,TGI,LOX IMVI melanoma,> 100 µM
same,TGI,RXF-631 renal,> 100 µM
same,TGI,OVCAR-5 ovarian,> 100 µM
same,TGI,SK-OV-3 ovarian,> 100 µM
same,TGI,SK-MEL-2 melanoma,> 100 µM
same,TGI,HCT-15 colon,> 100 µM
same,TGI,EKVX NSCLC,> 100 µM
same,TGI,OVCAR-8 ovarian,> 100 µM
same,TGI,SN12C renal,> 100 µM
same,TGI,A498 renal,> 100 µM
same,TGI,LXFL 529 NSCLC,> 100 µM
same,TGI,XF 498 CNS,> 100 µM
same,TGI,SF-295 CNS,> 100 µM
same,TGI,RPMI-8226 leukemia,> 100 µM
same,TGI,KM12 colon,> 100 µM
same,TGI,NCI-H460 lung,> 100 µM
same,TGI,SK-MEL-5 melanoma,> 100 µM
CCC(C)C1NC(=O)CNC(=O)C2Cc3c([nH]c4cc(O)ccc34)S(=O)CC(NC(=O)CNC1=O)C(=O)NC(CC(=O)O)C(=O)N1CC(O)CC1C(=O)NC(C(C)C(O)CO)C(=O)N2 (configuration not stated),TGI,P388/ADR leukemia,18.4 µM
same,TGI,P388 leukemia,14.9 µM
same,TGI,M19-MEL melanoma,24.2 µM
same,TGI,NCI-H226 lung,8.08 µM
same,TGI,HOP-18 NSCLC,> 88.9 µM
same,TGI,HOP-92 NSCLC,5.78 µM
same,TGI,DMS 273 small cell lung,14.9 µM
same,TGI,KM20L2 colon,> 100 µM
same,TGI,SN12K1 renal,> 100 µM
same,TGI,DLD-1 colon,> 100 µM
same,TGI,UACC-257 melanoma,6.73 µM
same,TGI,DMS 114 small cell lung,3.78 µM
same,TGI,NCI-H23 lung,5.81 µM
same,TGI,SNB-78 CNS,> 100 µM
same,TGI,XF 498 CNS,5.88 µM
CCCCN=C1OCc2[nH][nH]c(=O)c21,TGI,COLO 205 colon,> 100 µM
same,TGI,ACHN renal,> 100 µM
same,TGI,SF-539 CNS,> 100 µM
same,TGI,M19-MEL melanoma,> 100 µM
same,TGI,CCRF-CEM leukemia,> 100 µM
same,TGI,NCI-H226 lung,> 100 µM
same,TGI,A549 NSCLC,> 100 µM
same,TGI,M14 melanoma,> 100 µM
same,TGI,HOP-92 NSCLC,> 100 µM
same,TGI,DMS 273 small cell lung,> 100 µM
same,TGI,OVCAR-4 ovarian,> 100 µM
same,TGI,KM20L2 colon,> 100 µM
same,TGI,UO-31 renal,> 100 µM
same,TGI,HCT-116 colon,> 100 µM
same,TGI,SNB-19 CNS,> 100 µM
same,TGI,CAKI-1 renal,> 100 µM
same,TGI,HOP-62 NSCLC,> 100 µM
same,TGI,TK-10 renal,> 100 µM
same,TGI,UACC-62 melanoma,> 100 µM
same,TGI,U251 CNS,> 100 µM
same,TGI,SW-620 colon,> 100 µM
same,TGI,SR leukemia,> 100 µM
same,TGI,RXF 393 renal,> 100 µM
same,TGI,IGROV1 ovarian,> 100 µM
same,TGI,DLD-1 colon,> 100 µM
same,TGI,UACC-257 melanoma,> 100 µM
same,TGI,SK-MEL-28 melanoma,> 100 µM
same,TGI,HT29 colon,> 100 µM
same,TGI,SNB-75 CNS,> 100 µM
same,TGI,DMS 114 small cell lung,> 100 µM
same,TGI,K-562 leukemia,> 100 µM
same,TGI,SF-268 CNS,> 100 µM
same,TGI,HL-60(TB) leukemia,> 100 µM
same,TGI,MOLT-4 leukemia,> 100 µM
same,TGI,NCI-H23 lung,> 100 µM
same,TGI,HCC-2998 colon,> 100 µM
same,TGI,NCI-H522 lung,> 100 µM
same,TGI,SNB-78 CNS,> 100 µM
same,TGI,LOX IMVI melanoma,> 100 µM
same,TGI,RXF-631 renal,> 100 µM
same,TGI,OVCAR-5 ovarian,> 100 µM
same,TGI,SK-OV-3 ovarian,> 100 µM
same,TGI,SK-MEL-2 melanoma,> 100 µM
same,TGI,HCT-15 colon,> 100 µM
same,TGI,EKVX NSCLC,> 100 µM
same,TGI,OVCAR-8 ovarian,> 100 µM
same,TGI,SN12C renal,> 100 µM
same,TGI,A498 renal,> 100 µM
same,TGI,LXFL 529 NSCLC,> 100 µM
same,TGI,XF 498 CNS,> 100 µM
same,TGI,SF-295 CNS,> 100 µM
same,TGI,RPMI-8226 leukemia,> 100 µM
same,TGI,KM12 colon,> 100 µM
same,TGI,NCI-H460 lung,> 100 µM
same,TGI,SK-MEL-5 melanoma,> 100 µM
O=C(O)c1nccnc1C(=O)O,TGI,COLO 205 colon,> 100 µM
same,TGI,SF-539 CNS,> 100 µM
same,TGI,M19-MEL melanoma,> 100 µM
same,TGI,CCRF-CEM leukemia,> 100 µM
same,TGI,NCI-H226 lung,> 100 µM
same,TGI,A549 NSCLC,> 100 µM
same,TGI,HOP-92 NSCLC,> 100 µM
same,TGI,DMS 273 small cell lung,> 100 µM
same,TGI,OVCAR-4 ovarian,> 100 µM
same,TGI,KM20L2 colon,> 100 µM
same,TGI,UO-31 renal,> 100 µM
same,TGI,HCT-116 colon,> 100 µM
same,TGI,SNB-19 CNS,> 100 µM
same,TGI,CAKI-1 renal,> 100 µM
same,TGI,TK-10 renal,> 100 µM
same,TGI,UACC-62 melanoma,> 100 µM
same,TGI,786-0 renal,> 100 µM
same,TGI,U251 CNS,> 100 µM
same,TGI,MALME-3M melanoma,> 100 µM
same,TGI,SW-620 colon,> 100 µM
same,TGI,SR leukemia,> 100 µM
same,TGI,RXF 393 renal,> 100 µM
same,TGI,IGROV1 ovarian,> 100 µM
same,TGI,DLD-1 colon,> 100 µM
same,TGI,UACC-257 melanoma,> 100 µM
same,TGI,SK-MEL-28 melanoma,> 100 µM
same,TGI,HT29 colon,> 100 µM
same,TGI,SNB-75 CNS,> 100 µM
same,TGI,DMS 114 small cell lung,> 100 µM
same,TGI,K-562 leukemia,> 100 µM
same,TGI,SF-268 CNS,> 100 µM
same,TGI,HL-60(TB) leukemia,> 100 µM
same,TGI,MOLT-4 leukemia,> 100 µM
same,TGI,NCI-H23 lung,> 100 µM
same,TGI,HCC-2998 colon,> 100 µM
same,TGI,NCI-H522 lung,> 100 µM
same,TGI,LOX IMVI melanoma,> 100 µM
same,TGI,RXF-631 renal,> 100 µM
same,TGI,OVCAR-5 ovarian,> 100 µM
same,TGI,SK-OV-3 ovarian,> 100 µM
same,TGI,SK-MEL-2 melanoma,> 100 µM
same,TGI,HCT-15 colon,> 100 µM
same,TGI,EKVX NSCLC,> 100 µM
same,TGI,SN12C renal,> 100 µM
same,TGI,LXFL 529 NSCLC,> 100 µM
same,TGI,XF 498 CNS,> 100 µM
same,TGI,SF-295 CNS,> 100 µM
same,TGI,RPMI-8226 leukemia,> 100 µM
same,TGI,KM12 colon,> 100 µM
same,TGI,NCI-H460 lung,> 100 µM
same,TGI,SK-MEL-5 melanoma,> 100 µM
